From US20070265170A1, “DETECTION, PREVENTION AND TREATMENT OF OVARIAN CANCER” (priority 2006, published 2007)

What was measured:
[1] = test system: anti-carbohydrate antibodies in sera of metastatic breast cancer patients; test: Glycan array with sera of metastatic breast cancer patients; type: binding, human; conditions: sera diluted 1:25; for binding by antibodies from metastatic breast cancer patients: 9 MBC patients; for level of serum antibodies against the glycan in MBC patients compared to healthy individuals: relative fluorescence, FIG. 8-9
Method: Individual (not pooled) sera were collected from 9 patients who were diagnosed with metastatic breast cancer (MBC). Blood samples were collected before treatment, so that therapeutic intervention would not interfere with patient immune responses. One patient with breast cancer but with good prognosis (IDC, Stage 1) was also included in the study. As control, or “healthy” sera, sera from ten healthy individuals, 5 female and 5 male, with no known malignancies was collected.
Sera were diluted 1:25 with PBS containing 3% BSA, and placed on the glycan array slide in humidified chamber at room temperature for 90 min. The glycan array slide was then rinsed gently with PBS/0.05% Tween, incubated with biotinylated goat antibody against human IgG, IgM and IgA, rinsed in PBS/0.05% Tween, and incubated with streptavidin-Alexa488 fluorescent dye. Following rinses in PBS/0.05% Tween and H2O, glycan array slides were dried and scanned using the commercial DNA array scanner. […] Signal to background was typically greater 50:1 and no background subtractions were performed. Data were plotted using MS Excel software.

chicken ST6GalNAc-I = target: T1, chicken ST6GalNAc-I (Gallus gallus, UniProt Q92183); test: chST6GalNAc-I activity on small acceptor molecules; type: biochemical; conditions: α-D-galacto derivatives as acceptors
T1 construct: made in house; host or cells: insect cells
T1 sequence (Q92183 whole entry): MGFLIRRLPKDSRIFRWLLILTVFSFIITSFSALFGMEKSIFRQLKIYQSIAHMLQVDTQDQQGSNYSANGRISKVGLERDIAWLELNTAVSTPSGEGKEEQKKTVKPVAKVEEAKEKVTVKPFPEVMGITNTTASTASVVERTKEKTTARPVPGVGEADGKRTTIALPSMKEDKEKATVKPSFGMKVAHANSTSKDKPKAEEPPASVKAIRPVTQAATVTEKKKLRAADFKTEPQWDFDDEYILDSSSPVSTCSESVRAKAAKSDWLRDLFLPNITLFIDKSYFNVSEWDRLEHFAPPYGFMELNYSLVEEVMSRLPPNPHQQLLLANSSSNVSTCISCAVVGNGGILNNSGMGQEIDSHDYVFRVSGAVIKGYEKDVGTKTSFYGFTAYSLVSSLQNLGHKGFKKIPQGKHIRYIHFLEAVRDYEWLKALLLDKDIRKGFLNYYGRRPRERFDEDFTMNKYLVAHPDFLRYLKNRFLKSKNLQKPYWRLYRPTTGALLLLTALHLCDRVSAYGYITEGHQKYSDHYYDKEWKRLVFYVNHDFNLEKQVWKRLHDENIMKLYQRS
Text: The inventors have previously reported the cloning, expression, and characterization of chicken ST6GalNAc-I and its use in preparative synthesis of the O-linked sialoside antigens, STn-, α(2-6)SiaT-, α(2-3)SiaT- and Di-SiaT-antigen. Blixt, O.; Allin, K.; Pereira, L.; Datta, A. and Paulson, J. C., J. Am. Chem. Soc. 2002, 124, 5739-5746. Briefly, the recombinant enzyme was expressed in insect cells and purified by CDP-sepharose affinity chromatography to generate approximately 10 U/L of cell culture.

[2] = test system: Human anti-HIV 2G12 monoclonal antibody; test: Glycan array binding of 2G12; conditions: 2G12 30 μg/mL pre-complexed with goat anti-human-IgG-FITC
Text: Glycan array fabrication.
Glycan Binding Protein binding assay.
Image acquisition and signal processing. […] Data were plotted using MS Excel software.

β3GlcNAcT = β3GlcNAcT acceptor specificity; conditions: acceptor substrate; lactose (4) = 100%

| Molecule | binding by antibodies from metastatic breast cancer patients [1] | level of serum antibodies against the glycan in MBC patients compared to healthy individuals [1] | also measured |
| --- | --- | --- | --- |
| GNb3Ab4Gb#sp1 LNT-2 [Glycan 123] | bind | higher than in the healthy individuals | – |
| NJa6ANa#sp2 Neu5Gc6GalNAc (STn) [Glycan 155] | bind | – | – |
| NNa6ANa#sp2 6SiaβGalNAc [Glycan 190] | bind | significantly higher levels | – |
| CC(=O)N[C@H]1C(O)O[C@H](CO)[C@H](O)[C@@H]1O (stereo partly drawn) [D-GalNAc] | – | – | chST6GalNac-I Activity, cpm (chicken ST6GalNAc-I): 0 cpm; chST6GalNac-I Activity, nmol/mg × min^−1 (chicken ST6GalNAc-I): 0.00 nmol/mg × min^−1 |
| Fa2Ab3Anb3Aa4Ab4G#sp3 Globo-H [Glycan 97] | bind | higher than in the healthy individuals | – |
| Man-9#aa Man9-aminoacid [Glycan 145] | – | – | 2G12 binding to arrayed glycan [2]: smaller level of binding |
| Ab3ANb4[NNa3]Ab4Gb#sp1 GM1 [Glycan 58] | bind | higher than in the healthy individuals | – |
| OCC1O[C@@H](O)C(O)[C@@H](O)[C@@H]1O[C@@H]1OC(CO)[C@H](O)[C@H](O)C1O (stereo partly drawn) [Compound 4] | – | – | Relative enzyme activity (%) β(1-3)GlcNAcT-activity (β3GlcNAcT): 100% |
| Ceruloplasmine (protein, UniProt P00450 20-1065, looked up) Ceruloplasmin: KEKHYYIGIIETTWDYASDHGEKKLISVDTEHSNIYLQNGPDRIGRLYKKALYLQYTDETFRTTIEKPVWLGFLGPIIKAETGDKVYVHLKNLASRPYTFHSHGITYYKEHEGAIYPDNTTDFQRADDKVYPGEQYTYMLLATEEQSPGEGDGNCVTRIYHSHIDAPKDIASGLIGPLIICKKDSLDKEKEKHIDREFVVMFSVVDENFSWYLEDNIKTYCSEPEKVDKDNEDFQESNRMYSVNGYTFGSLPGLSMCAEDRVKWYLFGMGNEVDVHAAFFHGQALTNKNYRIDTINLFPATLFDAYMVAQNPGEWMLSCQNLNHLKAGLQAFFQVQECNKSSSKDNIRGKHVRHYYIAAEEIIWNYAPSGIDIFTKENLTAPGSDSAVFFEQGTTRIGGSYKKLVYREYTDASFTNRKERGPEEEHLGILGPVIWAEVGDTIRVTFHNKGAYPLSIEPIGVRFNKNNEGTYYSPNYNPQSRSVPPSASHVAPTETFTYEWTVPKEVGPTNADPVCLAKMYYSAVEPTKDIFTGLIGPMKICKKGSLHANGRQKDVDKEFYLFPTVFDENESLLLEDNIRMFTTAPDQVDKEDEDFQESNKMHSMNGFMYGNQPGLTMCKGDSVVWYLFSAGNEADVHGIYFSGNTYLWRGERRDTANLFPQTSLTLHMWPDTEGTFNVECLTTDHYTGGMKQKYTVNQCRRQSEDSTFYLGERTYYIAAVEVEWDYSPQREWEKELHHLQEQNVSNAFLDKGEFYIGSKYKKVVYRQYTDSTFRVPVERKAEEEHLGILGPQLHADVGDKVKIIFKNMATRPYSIHAHGVQTESSTVTPTLPGETLTYVWKIPERSGAGTEDSACIPWAYYSTVDQVKDLYSGLIGPLIVCRRPYLKVFNPRRKLEFALLFLVFDENESWYLDDNIKTYSDHPEKVNKDDEEFIESNKMHAINGRMFGNLQGLTMHVGDEVNWYLMGMGNEIDLHTVHFHGHSFQYKHRGVYSSDVFDIFPGTYQTLEMFPRTPGIWLLHCHVTDHIHAGMETTYTVLQNEDTKSG | bind | significantly higher levels | – |
